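Compound exposure: 48 hours, 5 concentrations, 96-well plates. At the TGI there is no net growth.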
Experiments:
Test in all cases: growth of human tumour cells (NCI), 48 h
786-0 renal = tested on: 786-0 renal
A498 renal = tested on: A498 renal
A549 NSCLC = tested on: A549 NSCLC
ACHN renal = tested on: ACHN renal
CAKI-1 renal = tested on: CAKI-1 renal
CCRF-CEM leukemia = tested on: CCRF-CEM leukemia
COLO 205 colon = tested on: COLO 205 colon
DLD-1 colon = tested on: DLD-1 colon
DMS 114 small cell lung = tested on: DMS 114 small cell lung
DMS 273 small cell lung = tested on: DMS 273 small cell lung
EKVX NSCLC = tested on: EKVX NSCLC
HCC-2998 colon = tested on: HCC-2998 colon
HCT-116 colon = tested on: HCT-116 colon
HCT-15 colon = tested on: HCT-15 colon
HL-60(TB) leukemia = tested on: HL-60(TB) leukemia
HOP-18 NSCLC = tested on: HOP-18 NSCLC
HOP-62 NSCLC = tested on: HOP-62 NSCLC
HOP-92 NSCLC = tested on: HOP-92 NSCLC
HT29 colon = tested on: HT29 colon
IGROV1 ovarian = tested on: IGROV1 ovarian
K-562 leukemia = tested on: K-562 leukemia
KM12 colon = tested on: KM12 colon
KM20L2 colon = tested on: KM20L2 colon
LOX IMVI melanoma = tested on: LOX IMVI melanoma
M14 melanoma = tested on: M14 melanoma
M19-MEL melanoma = tested on: M19-MEL melanoma
MALME-3M melanoma = tested on: MALME-3M melanoma
MOLT-4 leukemia = tested on: MOLT-4 leukemia
NCI-H226 lung = tested on: NCI-H226 lung
NCI-H23 lung = tested on: NCI-H23 lung
NCI-H460 lung = tested on: NCI-H460 lung
OVCAR-3 ovarian = tested on: OVCAR-3 ovarian
OVCAR-4 ovarian = tested on: OVCAR-4 ovarian
OVCAR-5 ovarian = tested on: OVCAR-5 ovarian
RPMI-8226 leukemia = tested on: RPMI-8226 leukemia
RXF 393 renal = tested on: RXF 393 renal
SF-268 CNS = tested on: SF-268 CNS
SF-295 CNS = tested on: SF-295 CNS
SF-539 CNS = tested on: SF-539 CNS
SK-MEL-2 melanoma = tested on: SK-MEL-2 melanoma
SK-MEL-28 melanoma = tested on: SK-MEL-28 melanoma
SK-MEL-5 melanoma = tested on: SK-MEL-5 melanoma
SK-OV-3 ovarian = tested on: SK-OV-3 ovarian
SN12C renal = tested on: SN12C renal
SNB-19 CNS = tested on: SNB-19 CNS
SNB-75 CNS = tested on: SNB-75 CNS
SNB-78 CNS = tested on: SNB-78 CNS
SR leukemia = tested on: SR leukemia
SW-620 colon = tested on: SW-620 colon
TK-10 renal = tested on: TK-10 renal
U251 CNS = tested on: U251 CNS
UACC-257 melanoma = tested on: UACC-257 melanoma
UACC-62 melanoma = tested on: UACC-62 melanoma
UO-31 renal = tested on: UO-31 renal
BT-549 breast = tested on: BT-549 breast
DU-145 prostate = tested on: DU-145 prostate
HS 578T breast = tested on: HS 578T breast
MCF7 breast = tested on: MCF7 breast
MDA-MB-231 breast = tested on: MDA-MB-231 breast
MDA-MB-435 = tested on: MDA-MB-435
MDA-N = tested on: MDA-N
NCI-H522 lung = tested on: NCI-H522 lung
NCI/ADR-RES ovarian = tested on: NCI/ADR-RES ovarian
OVCAR-8 ovarian = tested on: OVCAR-8 ovarian
PC-3 prostate = tested on: PC-3 prostate
T-47D breast = tested on: T-47D breast

SMILES: N#CC(C(=O)C(=O)C(C#N)c1ccc(Br)cc1)c1ccc(Br)cc1 (stereo not given)
- TGI (786-0 renal): 27 µM
- TGI (A498 renal): 29.3 µM
- TGI (A549 NSCLC): 46.5 µM
- TGI (ACHN renal): 25.1 µM
- TGI (CAKI-1 renal): 37.1 µM
- TGI (CCRF-CEM leukemia): > 100 µM
- TGI (COLO 205 colon): 31.4 µM
- TGI (DLD-1 colon): 34.5 µM
- TGI (DMS 114 small cell lung): 26.5 µM
- TGI (DMS 273 small cell lung): 24.9 µM
- TGI (EKVX NSCLC): 24.6 µM
- TGI (HCC-2998 colon): 24.5 µM
- TGI (HCT-116 colon): 29.5 µM
- TGI (HCT-15 colon): 26.1 µM
- TGI (HL-60(TB) leukemia): 20.6 µM
- TGI (HOP-18 NSCLC): 25.9 µM
- TGI (HOP-62 NSCLC): 27.2 µM
- TGI (HOP-92 NSCLC): 26.4 µM
- TGI (HT29 colon): 22.8 µM
- TGI (IGROV1 ovarian): 30 µM
- TGI (K-562 leukemia): > 100 µM
- TGI (KM12 colon): 22.4 µM
- TGI (KM20L2 colon): 27.7 µM
- TGI (LOX IMVI melanoma): 23.6 µM
- TGI (M14 melanoma): 31.6 µM
- TGI (M19-MEL melanoma): 25.8 µM
- TGI (MALME-3M melanoma): 27.7 µM
- TGI (MOLT-4 leukemia): 47.1 µM
- TGI (NCI-H226 lung): 34.8 µM
- TGI (NCI-H23 lung): 14.1 µM
- TGI (NCI-H460 lung): 30.5 µM
- TGI (OVCAR-3 ovarian): 21.4 µM
- TGI (OVCAR-4 ovarian): 24.9 µM
- TGI (OVCAR-5 ovarian): 32.1 µM
- TGI (RPMI-8226 leukemia): > 100 µM
- TGI (RXF 393 renal): 9.01 µM
- TGI (SF-268 CNS): 32.4 µM
- TGI (SF-295 CNS): 26.6 µM
- TGI (SF-539 CNS): 29.4 µM
- TGI (SK-MEL-2 melanoma): 27.5 µM
- TGI (SK-MEL-28 melanoma): 28.9 µM
- TGI (SK-MEL-5 melanoma): 27.5 µM
- TGI (SK-OV-3 ovarian): 33.1 µM
- TGI (SN12C renal): 28 µM
- TGI (SNB-19 CNS): 30.7 µM
- TGI (SNB-75 CNS): 17.7 µM
- TGI (SNB-78 CNS): 37.4 µM
- TGI (SR leukemia): > 100 µM
- TGI (SW-620 colon): 31.3 µM
- TGI (TK-10 renal): 30.6 µM
- TGI (U251 CNS): 23.8 µM
- TGI (UACC-257 melanoma): 25.1 µM
- TGI (UACC-62 melanoma): 7.03 µM
- TGI (UO-31 renal): 29.9 µM

SMILES: CC(C)=CC[C@]12CCN[C@H]1N(S(=O)(=O)c1ccccc1)c1ccccc12
- TGI (786-0 renal): 32.2 µM
- TGI (A549 NSCLC): 59.1 µM
- TGI (ACHN renal): 50.7 µM
- TGI (BT-549 breast): 33.7 µM
- TGI (CAKI-1 renal): 69.4 µM
- TGI (CCRF-CEM leukemia): > 100 µM
- TGI (COLO 205 colon): 41 µM
- TGI (DU-145 prostate): > 100 µM
- TGI (EKVX NSCLC): 21.3 µM
- TGI (HCC-2998 colon): 32.1 µM
- TGI (HCT-116 colon): 27.9 µM
- TGI (HCT-15 colon): 32.8 µM
- TGI (HL-60(TB) leukemia): 45.6 µM
- TGI (HOP-62 NSCLC): 29.1 µM
- TGI (HOP-92 NSCLC): 28.3 µM
- TGI (HS 578T breast): 44.5 µM
- TGI (HT29 colon): 39 µM
- TGI (IGROV1 ovarian): 30.8 µM
- TGI (K-562 leukemia): 56.9 µM
- TGI (KM12 colon): 76.3 µM
- TGI (LOX IMVI melanoma): 31.2 µM
- TGI (MALME-3M melanoma): 32.7 µM
- TGI (MCF7 breast): 39.8 µM
- TGI (MDA-MB-231 breast): 58.5 µM
- TGI (MDA-MB-435): 32.5 µM
- TGI (MDA-N): 29.1 µM
- TGI (MOLT-4 leukemia): 75.8 µM
- TGI (NCI-H226 lung): 36.7 µM
- TGI (NCI-H23 lung): > 100 µM
- TGI (NCI-H460 lung): 29 µM
- TGI (NCI-H522 lung): 30.1 µM
- TGI (NCI/ADR-RES ovarian): 30.5 µM
- TGI (OVCAR-3 ovarian): 30.6 µM
- TGI (OVCAR-4 ovarian): 42 µM
- TGI (OVCAR-5 ovarian): > 100 µM
- TGI (OVCAR-8 ovarian): 33.9 µM
- TGI (PC-3 prostate): 27.4 µM
- TGI (RPMI-8226 leukemia): 45.9 µM
- TGI (RXF 393 renal): 27.6 µM
- TGI (SF-268 CNS): 33.3 µM
- TGI (SF-295 CNS): 34.5 µM
- TGI (SF-539 CNS): 36.9 µM
- TGI (SK-MEL-2 melanoma): 31.6 µM
- TGI (SK-MEL-28 melanoma): 31.5 µM
- TGI (SK-MEL-5 melanoma): 28.1 µM
- TGI (SK-OV-3 ovarian): 38.9 µM
- TGI (SN12C renal): 26.4 µM
- TGI (SNB-19 CNS): 51.2 µM
- TGI (SNB-75 CNS): 44.5 µM
- TGI (SR leukemia): 51 µM
- TGI (SW-620 colon): 36.9 µM
- TGI (T-47D breast): 92.9 µM
- TGI (TK-10 renal): > 100 µM
- TGI (U251 CNS): 30.7 µM
- TGI (UACC-257 melanoma): 34.8 µM
- TGI (UACC-62 melanoma): 29.2 µM
- TGI (UO-31 renal): 33.3 µM

SMILES: CCCCCCc1cc2cc(C(=O)Nc3ccccc3)c(=N)oc2cc1O
- TGI (786-0 renal): > 35.8 µM
- TGI (A498 renal): > 100 µM
- TGI (A549 NSCLC): > 37.5 µM
- TGI (ACHN renal): > 100 µM
- TGI (BT-549 breast): > 100 µM
- TGI (CAKI-1 renal): > 100 µM
- TGI (CCRF-CEM leukemia): > 37.9 µM
- TGI (COLO 205 colon): > 100 µM
- TGI (DU-145 prostate): > 100 µM
- TGI (EKVX NSCLC): > 100 µM
- TGI (HCC-2998 colon): 20.8 µM
- TGI (HCT-116 colon): 6.59 µM
- TGI (HCT-15 colon): > 100 µM
- TGI (HL-60(TB) leukemia): > 100 µM
- TGI (HOP-62 NSCLC): 11.8 µM
- TGI (HOP-92 NSCLC): > 100 µM
- TGI (HS 578T breast): 20 µM
- TGI (HT29 colon): > 32.1 µM
- TGI (IGROV1 ovarian): > 100 µM
- TGI (K-562 leukemia): > 100 µM
- TGI (KM12 colon): 8.48 µM
- TGI (LOX IMVI melanoma): 12.5 µM
- TGI (M14 melanoma): > 29.4 µM
- TGI (MALME-3M melanoma): 5.6 µM
- TGI (MCF7 breast): > 100 µM
- TGI (MDA-MB-231 breast): > 100 µM
- TGI (MDA-MB-435): 14.1 µM
- TGI (MDA-N): > 34.3 µM
- TGI (MOLT-4 leukemia): 8.79 µM
- TGI (NCI-H226 lung): > 100 µM
- TGI (NCI-H23 lung): 10.6 µM
- TGI (NCI-H460 lung): > 100 µM
- TGI (NCI-H522 lung): 6.02 µM
- TGI (NCI/ADR-RES ovarian): > 100 µM
- TGI (OVCAR-3 ovarian): 5.1 µM
- TGI (OVCAR-4 ovarian): > 60.9 µM
- TGI (OVCAR-5 ovarian): > 100 µM
- TGI (OVCAR-8 ovarian): > 49.6 µM
- TGI (PC-3 prostate): > 30.3 µM
- TGI (RPMI-8226 leukemia): > 100 µM
- TGI (RXF 393 renal): > 100 µM
- TGI (SF-268 CNS): > 100 µM
- TGI (SF-295 CNS): > 100 µM
- TGI (SF-539 CNS): > 48.6 µM
- TGI (SK-MEL-2 melanoma): 14.7 µM
- TGI (SK-MEL-28 melanoma): > 100 µM
- TGI (SK-MEL-5 melanoma): 8.41 µM
- TGI (SK-OV-3 ovarian): > 26.5 µM
- TGI (SN12C renal): 6.97 µM
- TGI (SNB-19 CNS): > 73.8 µM
- TGI (SNB-75 CNS): > 100 µM
- TGI (SR leukemia): > 26.3 µM
- TGI (SW-620 colon): > 100 µM
- TGI (T-47D breast): > 47.1 µM
- TGI (TK-10 renal): > 100 µM
- TGI (U251 CNS): > 33.6 µM
- TGI (UACC-257 melanoma): > 100 µM
- TGI (UACC-62 melanoma): 40.1 µM
- TGI (UO-31 renal): 12.7 µM
